B1: interferon γ: Interferon γ (100 ng/ml; Thermo Fisher Scientific) (protein, UniProt P01579 24-161, looked up)
Interferon gamma: QDPYVKEAENLKKYFNAGHSDVADNGTLFLGILKNWKEESDRKIMQSQIVSFYFKLFKNFKDDQSIQKSVETIKEDMNVKFFNSNKKKRDDFEKLTNYSVTDLNVQRKAIHELIQVMAELSPAAKTGKRKRSQMLFRG

Experiments:
[1] = tested on: human foreskin keratinocytes (HFK); test: Tight junction formation, ZO-1 immunofluorescence; format: cell-based; conditions: CaCl2 raised to 1.5 mM in KSFM+A+Y
Protocol: Specifically, late passage human foreskin keratinocytes (HFK) cultured in KSFM supplemented with 1 μM A83-01 and 5 μM Y-27632 (KSFM+A+Y) at low CaCl2 (90 μM) were allowed to reach confluence. The cells remained in the KSFM+A+Y conditions and the CaCl2 concentration was raised to 1.5 mM to induce differentiation.

[2] = tested on: human bronchial epithelial cells; test: Effect of culture media calcium content on cell behavior; format: cell-based; conditions: 1 mM CaCl2 in KSFM plus A83-01 and Y-27632
Protocol: Effects of culture media calcium content on cell behavior were assessed for epithelial cells cultured in KSFM plus A83-01 and Y-27632. Human bronchial epithelial cells were grown KSFM (with 90 μM CaCl2) plus A83-01 and Y-27632. These cells dispersed throughout the culture vessel (FIG. 28, left panel), and few cells formed intercellular connections, even when they were in close proximity to each other. […] Cells in the center of the patches tended to pile up, and boundaries between individual cells generally were not discernable. In certain instances, abnormal elongations formed between clusters.

[3] = tested on: human bronchial epithelial cells (HBEC) and human foreskin keratinocytes (HFK); test: Dome-like structure formation at high CaCl2; format: cell-based; conditions: CaCl2 raised to 1.5 mM in KSFM+A+Y, 7 to 10 days
Protocol: Dome-like structures formed in keratinocyte and bronchial epithelial cell cultures in the presence of high concentration of CaCl2. Specifically, late passage human bronchial epithelial cells (HBEC) and late passage human foreskin keratinocytes (HFK) cultured in KSFM supplemented with 1 μM A 83-01 and 5 μM Y-27632 (KSFM+A+Y) at low CaCl2 (90 μM) were allowed to reach confluence in 6-well plates. The cells remained in the KSFM+A+Y conditions and the CaCl2 concentration was raised to 1.5 mM to induce differentiation of the epithelial cells.

[4] = tested on: bronchial epithelial cells; test: Trans-epithelium electric resistance (TEER) of bronchial epithelial cells on […]; format: cell-based, human
Protocol: In a further investigation, effects of culture media calcium content on intercellular junctions was assessed for bronchial epithelial cells cultured in KSFM plus A83-01 and Y-27632. Intercellular junctions were assessed according to paracellular flow of ions as measured by trans-epithelium electric resistance (TEER). […] Bronchial epithelial cells were plated on porous membrane support ([…], Corning, 354474) and maintained for 7 days when the membrane was covered with culture medium (submerged phase, grayed box in FIG. 29, top panel). On day 8, the medium was removed from the apical side of the membrane, and the cells were exposed to air to induce further differentiation. Further, as shown in FIG. 29 (bottom panel), bronchial epithelial cells established increasing transmembrane electric resistance (TEER) over time in the presence of high concentration (1 mM) of CaCl2 in KSFM plus A 83-01 and Y-27632. Bronchial epithelial cells were plated on a porous membrane support ([…], Corning, 354474) and maintained for 24 days, with the membrane covered by culture medium for the duration of the culture. Trans-epithelium electric resistance (TEER) remained at a high level throughout the culture period.

[5] = tested on: human foreskin keratinocytes (HFK); test: TEER in air-liquid-interface differentiation of keratinocytes; format: cell-based; conditions: 1.5 mM CaCl2 in KSFM+A+Y, 14 days
Protocol: Keratinocytes established increasing transmembrane electric resistance (TEER) over time in air-liquid-interface differentiation, in the presence of high concentration (1.5 mM) of CaCl2 in KSFM plus A 83-01 and Y-27632. Specifically, human foreskin keratinocytes (HFK) previously cultured in KSFM supplemented with 1 μM A83-01 and 5 μM Y-27632 (KSFM+A+Y) at low CaCl2 (90 μM) were plated on a porous membrane support ([…], Corning, 354474) and maintained for 14 days. The cells were covered by culture medium (KSFM+A+Y and 1.5 mM of CaCl2) for the first day (submerged phase, grayed box in FIG. 34) and exposed to air for the remaining days.

[6] = tested on: human foreskin keratinocytes (HFK); test: Epidermal-like structure in air-liquid-interface differentiation (H&E); format: cell-based; conditions: 1.5 mM CaCl2 in KSFM+A+Y, day 14
Protocol: Keratinocytes formed an epidermal-like structure over time in air-liquid-interface differentiation, in the presence of high concentration (1.5 mM) of CaCl2 in KSFM plus A 83-01 and Y-27632. Specifically, human foreskin keratinocytes (HFK) previously cultured in KSFM supplemented with 1 μM A83-01 and 5 μM Y-27632 (KSFM+A+Y) at low CaCl2 (90 μM) were plated on a porous membrane support ([…], Corning, 354474) and maintained for 14 days. The cells were covered by culture medium (KSFM+A+Y and 1.5 mM of CaCl2) for the first day and exposed to air for the remaining days. At the end of experiment (i.e., on day 14), the culture was fixed in 4% paraformaldehyde, embedded in paraffin and sectioned for haematoxylin and eosin staining (H&E) to reveal its structure.

hAECs = test: Effect of interferon γ on immunomodulatory gene expression in hAECs (qRT-PCR); format: cell-based, human; conditions: 100 ng/mL, 48 hours
Protocol: In certain instances, treatment of hAECs with interferon γ (INFγ) leads to an upregulation of genes involved in immune suppression. However, cultured hAECs typically lose their functional phenotype (see e.g., cells tested at passage 5 in Pratama et al. 2011 PLoS ONE 6(11): e26136). In this example, hAECs isolated from two different donors (Donor 1 and Donor 2), were tested for their response to INFγ both in KSFM A+Y and after removal from growth conditions and placement into standard hAEC media (DMEM:F12 10% FBS). Cells from both donors grown in KSFM A+Y at passage 4 at ˜80% confluence were either kept in KSFM A+Y, changed to KSFM A+Y+100 ng/mL INFγ, or changed to DMEM:F12+/−100 ng/mL INFγ. The cells were left for an additional 48 hours in each condition. qRT-PCR was used to examine expression levels of HLA-G, Indoleamine 2,3-dioxygenase (IDO), and Programmed Death Ligand 1 (PD-L1) (see FIGS. 46A-46D).
HLA-G can have a wide variety of immunomodulatory effects on numerous immune cells. Expression of HLA-G is generally considered a prominent feature of hAECs, and often is lost during expansion in culture. […] IDO is the first and rate-limiting enzyme of tryptophan catabolism through the kynurenine pathway, thus causing depletion of tryptophan which can inhibit T cell proliferation. […] PD-L1 may play a major role in immune suppression, inhibiting the proliferation and inducing apoptosis of T cells.

[7] = tested on: CD4+ and CD8+ T cells (human PBMCs); test: T cell proliferation, Cell Trace CFSE stained PBMCs with PHA co-incubated with hAECs; format: cell-based; conditions: 48 hour preincubation of hAECs with interferon γ 100 ng/ml
Source text: Human Peripheral Blood Mononuclear Cells (PBMCs) were isolated and stained with Cell Trace CFSE (Thermo Fisher Scientific). Cell Trace CFSE is a cell permeable amine reactive fluorescent dye that non-specifically labels intracellular proteins. Through subsequent cell divisions each daughter cell receives approximately half of the label allowing for determination of the intensity of fluorescence by flow cytometry and correlation to the number of cell divisions. Cell Trace CFSE stained PBMCs were added to ˜80% confluent monolayers of hAECs from Donor 1 (P4) and Donor 2 (P4) expanded in KSFM A+Y. Upon addition of the stained PMBCs the media was changed to RPMI media with 10% FBS and 5 μg/ml phytohaemagglutinin (PHA). PHA is a potent mitotic agent used to activate and stimulate proliferation of lymphocytes. The expanded hAECs were used directly from growth conditions or after a 48 hour preincubation with Interferon γ (100 ng/ml; Thermo Fisher Scientific). This treatment can increase the immunosuppressive effect of hAECs. […] The degree of inhibition of proliferation was calculated by determining the number of cells that proliferated in the presence of hAECs relative to the number of cells that proliferated when exposed to PHA treatment alone (FIG. 45D). […]

| Molecule | tight junction formation (ZO-1) [1] | cell behavior [2] | dome-like structure formation [3] | intercellular junctions (TEER) ([4]; high concentration (1 mM) in KSFM plus A 83-01 and Y-27632) | intercellular junctions (TEER) ([4]; low concentration (90 μM) in KSFM plus A 83-01 and Y-27632) | trans-epithelium electric resistance (TEER) [5] | epidermal-like structure formation [6] | IDO expression (hAECs) | PD-L1 expression (hAECs) | HLA-G expression (hAECs; after moving cells to standard media (DMEM:F12)) | inhibition of T cell proliferation by hAECs [7] |
| --- | --- | --- | --- | --- | --- | --- | --- | --- | --- | --- | --- |
| [Ca+2].[Cl-].[Cl-] [CaCl2] | Tight junction formation was observed | aggregate into tight clusters | Many dome-like structures were formed | established tight intercellular junctions | failed to establish tight intercellular junctions | reached very high levels | differentiated into multi-layer structures |  |  |  |  |
| B1 |  |  |  |  |  |  |  | increases dramatically | dramatic increase in expression | greatly increased | increased |

Source: patent US10100285B2, “Ex vivo proliferation of epithelial cells” (PROPAGENIX INC., priority 2015, dated 2018)
